Laboratory results reported in the supplement of paper PMC13380429.

Key:
Conditions in all cases: 72 h
Caco-2 [1] = experiment: relative viability EC50 (midpoint between 100% and the lowest measured viability); higher = less toxic
Vero E6 [2] = experiment: as above
Calu-3 [3] = experiment: as above
U2OS [4] = experiment: as above
HepG2 [5] = experiment: as above
Caco-2 [6] = experiment: drug sensitivity score (DSS) for viability; higher = more toxic; extreme values may be limits of the assay
Vero E6 [7] = experiment: as above
Calu-3 [8] = experiment: as above
U2OS [9] = experiment: as above
HepG2 [10] = experiment: as above
Caco-2 [11] = experiment: cell viability relative to DMSO; higher = less toxic
Vero E6 [12] = experiment: as above
Calu-3 [13] = experiment: as above
U2OS [14] = experiment: as above
HepG2 [15] = experiment: as above

SMILES	relative viability EC50 (Caco-2 [1]) [µM]	relative viability EC50 (Vero E6 [2]) [µM]	relative viability EC50 (Calu-3 [3]) [µM]	relative viability EC50 (U2OS [4]) [µM]	relative viability EC50 (HepG2 [5]) [µM]	drug sensitivity score (Caco-2 [6])	drug sensitivity score (Vero E6 [7])	drug sensitivity score (Calu-3 [8])	drug sensitivity score (U2OS [9])	drug sensitivity score (HepG2 [10])	cell viability (Caco-2 [11]; 1 nM) [%]	cell viability (Caco-2 [11]; 10 nM) [%]	cell viability (Caco-2 [11]; 100 nM) [%]	cell viability (Caco-2 [11]; 1000 nM) [%]	cell viability (Caco-2 [11]; 10000 nM) [%]	cell viability (Vero E6 [12]; 1 nM) [%]	cell viability (Vero E6 [12]; 10 nM) [%]	cell viability (Vero E6 [12]; 100 nM) [%]	cell viability (Vero E6 [12]; 1000 nM) [%]	cell viability (Vero E6 [12]; 10000 nM) [%]	cell viability (Calu-3 [13]; 1 nM) [%]	cell viability (Calu-3 [13]; 10 nM) [%]	cell viability (Calu-3 [13]; 100 nM) [%]	cell viability (Calu-3 [13]; 1000 nM) [%]	cell viability (Calu-3 [13]; 10000 nM) [%]	cell viability (U2OS [14]; 1 nM) [%]	cell viability (U2OS [14]; 10 nM) [%]	cell viability (U2OS [14]; 100 nM) [%]	cell viability (U2OS [14]; 1000 nM) [%]	cell viability (U2OS [14]; 10000 nM) [%]	cell viability (HepG2 [15]; 1 nM) [%]	cell viability (HepG2 [15]; 10 nM) [%]	cell viability (HepG2 [15]; 100 nM) [%]	cell viability (HepG2 [15]; 1000 nM) [%]	cell viability (HepG2 [15]; 10000 nM) [%]
O=[N+]([O-])c1cn2c(n1)OC[C@@H](OCc1ccc(-c3ccc(OC(F)(F)F)cc3)nc1)C2 [TBA-354]	> 10	> 10	> 10	> 10	> 10	0	0	0	0	0	99.5	95.4	103	92.1	92.9	96.7	101	93.6	99	104	101	103	106	96.1	98.5	98.3	98.8	102	100	98.8	92.9	108	89.4	110	105
CCCc1c(OCCCCc2nnn[nH]2)ccc(C(C)=O)c1O [tomelukast]	> 10	> 10	> 10	> 10	> 10	0	0	0	0	1.5	88.9	93.9	97.8	105	97.6	94.5	98.5	107	96.6	106	87.4	105	107	102	104	94.9	103	98.1	99.7	99.6	95.6	90.3	94.5	82.9	84.8
N[C@@H]1CCCN(c2c(/C=C3\SC(=O)NC3=O)cccc2-c2ccccc2)C1 [AZD1208]	> 10	> 10	> 10	> 10	> 10	0	0	0	0	1.2	103	97.5	109	95.3	98.6	98.3	99.9	87.9	91.8	96.2	105	94.4	92.4	86.6	99.8	97.1	88.9	93.3	95.6	96.7	92.6	104	93.5	89.8	80
c1ccc(-c2nc(CN3CCN(c4ncccn4)CC3)c[nH]2)cc1 [NGD-94-1]	> 10	> 10	> 10	> 10	> 10	0	0	0	0	0	99.7	106	91.9	102	111	93.2	97.5	91.5	92.9	105	79.7	93.8	85.5	95.7	108	100	95.5	98.4	92.5	109	98.2	97.3	94.1	101	105
CC1(C)S[C@@H]2[C@H](NC(=O)C(C(=O)O)c3ccccc3)C(=O)N2[C@H]1C(=O)O (stereo not given in full) [carbenicillin]	> 10	> 10	> 10	> 10	> 10	0	0	0	0	0	104	106	92.5	93.9	94.9	102	100	102	95.7	95.7	105	98.3	103	105	99.9	103	102	98.8	102	96	97.2	100	103	103	98
COc1cc(C)[nH]c(=O)c1CNC(=O)c1c(C)n([C@H](C)C2CCOCC2)c2ccccc12 [CPI-360]	> 10	> 10	> 10	> 10	> 10	0	0	0	0	0	107	106	99.2	107	95.7	108	102	108	96.3	104	101	113	101	105	95.7	99.7	101	100	102	101	107	97.6	96.7	90.7	92.2
CCN(CC)CCN(Cc1ccc(-c2ccc(C(F)(F)F)cc2)cc1)C(=O)Cn1c(SCc2ccc(F)cc2)nc(=O)c2c1CCC2 [darapladib]	2.59	2.05	2.35	3.05	3.21	5.8	4.2	7.1	5.7	5.5	93.5	93.6	98.9	93.8	13	91.9	100	90.1	92.4	45.1	102	95.7	106	90.2	0.4	102	98.3	103	98.4	1.6	91.8	97.1	85.3	101	0.3
COCCOc1ccc2c(c1)ncn2-c1ccc2cccc(N3CCC(N)CC3)c2n1	> 10	2.35	> 10	2.47	2.57	0	3.6	0	3.7	6.1	94.1	108	98.2	104	90.4	98.3	97.1	102	94.9	48.5	96	92.7	103	123	87.4	98.6	104	95.3	95.4	45.2	99.3	101	98.3	93.3	8.1
CO[C@H]1O[C@@H]2O[C@@]3(C)CC[C@H]4[C@H](C)CC[C@@H]([C@H]1C)[C@@]24OO3 [artemether]	> 10	> 10	> 10	> 10	> 10	0.4	0	0	0	0.4	95.4	94.5	97.3	86.6	86.2	103	106	92.1	95.9	96.9	106	108	96.3	101	96.5	99.1	97.1	101	96.6	94.4	97.6	101	103	92.1	87.8
C#Cc1cccc(Nc2ncnc3cc(OC)c(OCCCCCCC(=O)NO)cc23)c1 [CUDC-101]	1.55	1.67	0.419	1.41	0.548	5.4	8.2	14.1	9.6	14.7	97	89.7	90.6	81.8	39.6	98.6	96	94.6	80.2	8.4	96.7	98.8	81.5	37.2	9	97.7	99.6	93.4	68.5	2	96.3	110	94.9	25.7	0.1
CCCCOc1ccc(OCCCN2CCOCC2)cc1 [pramoxine]	> 10	> 10	> 10	> 10	> 10	0	0	0	0	0	105	109	97.8	95.8	98	103	97.3	98.8	102	103	104	99.1	87.1	95.1	102	105	105	104	102	99.3	97.1	98.3	98.1	94.7	98.9
Cc1cc(-n2c(=O)[nH]c(=O)n(C)c2=O)ccc1Oc1ccc(SC(F)(F)F)cc1 [toltrazuril]	> 10	> 10	> 10	> 10	> 10	0	0	0	0	0	104	109	105	97.1	97.4	99.5	105	101	96.3	95.8	98.8	83.1	105	106	101	97.2	95.2	93.1	99.6	92.1	90.4	107	99.5	95.9	102
O=C1CCC[C@@H]2[C@H]3CCCN4CCC[C@@H](CN12)[C@@H]34 [matrine]	> 10	> 10	> 10	> 10	> 10	0	0	0	0	0	97.6	94	94.9	91.4	90.4	96.8	98.7	93.3	99.1	104	97	93.5	100	98.5	100	96.1	96.4	96.4	93.7	99.1	89.9	108	85.8	111	103
Cc1ccc(C23CNCC2C3)cc1 (stereo not given) [bicifadine]	> 10	> 10	> 10	> 10	> 10	0	0	0	0	0	103	99	106	110	97.4	97.7	93.8	98.8	96.3	99.8	115	96	104	105	103	96.8	98.9	103	102	96.4	99.7	88.8	100	96.3	94.7
CC(C)(C)NC[C@H](O)c1ccc(O)cc1Cl [meluadrine]	> 10	> 10	> 10	> 10	> 10	0	0	0	0	0	97.9	97.6	93.9	97.6	90.7	109	102	102	99.9	104	92.8	104	98.3	104	104	99.3	101	96.4	100	96.4	105	106	103	95	105
CC(C(=O)O)c1ccc2c(c1)[nH]c1ccc(Cl)cc12 (stereo not given) [carprofen]	> 10	> 10	> 10	> 10	> 10	0	0	0	0	0	96.4	96.5	88.4	95.7	94.6	107	101	115	99.4	101	96.5	95.5	104	104	94	96.5	102	96.1	100	98.7	103	101	90.6	96.5	99.6
Fc1ccc(-c2nc3n(c2-c2ccncc2)CCS3)cc1	> 10	> 10	> 10	> 10	> 10	0.2	0	0	0	0	99.6	101	90.9	89.4	92	97.8	99.7	98.2	99.1	93	95.2	86.2	90.9	87.7	101	99	97.8	98.7	96.1	97.6	97.3	93.2	97.8	99.9	100
CS(=O)(=O)c1ccc([C@@H](O)[C@@H](CF)NC(=O)C(Cl)Cl)cc1 [florfenicol]	> 10	> 10	> 10	> 10	2.11	0	0	0	0	3.9	109	99.9	107	97.1	96	100	104	95.9	104	95.2	93.7	90.8	86.2	103	98.8	99.9	96.2	99.1	98.3	99.5	107	91	115	93.1	48
OB1OCc2cc(Cl)ccc21 [AN2718]	> 10	> 10	> 10	> 10	> 10	0.4	0	0	0	0	93.8	102	82.2	98.8	82.7	101	99.8	94.7	96.9	103	100	89	90.6	102	92.8	101	98	96.1	98.2	98.7	120	107	107	94	108
CC(C)[C@@H](C)/C=C/[C@@H](C)[C@H]1CC[C@H]2/C(=C/C=C3\C[C@@H](O)CC[C@@H]3C)CCC[C@]12C [dihydrotachysterol]	> 10	> 10	> 10	> 10	> 10	0	0	0	0	0	108	96	100	104	103	101	100	98.1	102	110	97.4	99.7	97.7	99.6	97.7	104	93.1	101	99.3	100	92.8	94.3	95.8	93.2	106
CN1C(CSCC(F)(F)F)Nc2cc(Cl)c(S(N)(=O)=O)cc2S1(=O)=O (stereo not given) [polythiazide]	> 10	> 10	> 10	> 10	> 10	0	0	0	0	0	88.1	90.5	95.2	94.9	93	91.7	98.8	86.6	96.8	108	95.7	98.5	107	101	109	98.4	97.5	104	96.2	100	93.7	110	99.6	103	106
COc1cc(C(=S)N2CCOCC2)cc(OC)c1OC [sulmetozine]	> 10	> 10	> 10	> 10	> 10	0	0	0	0	0	90.8	98	90.6	91.6	103	103	94.7	105	97.7	113	96.5	99.4	102	99.9	105	97.2	103	94.6	96.3	102	95	102	98.6	111	108
Cn1cnc2c(NCc3ccccc3)nc(NCCO)nc21 [olomoucine]	> 10	> 10	> 10	> 10	> 10	0	0	0	0	0	97.5	93.3	92.5	98.7	106	93	98.1	96	99.7	104	102	97.9	96	99.9	105	103	101	103	96.9	108	106	106	96.4	112	114
